Measured values as given in patent US20070218504A1, “HUMAN LEPTIN-DERIVED POLYPEPTIDES AND USES THEREOF” (UNIVERSITY OF PITTSBURGH, priority 2006, published 2007).
“Also recorded” adds a separate entry of the source.

Experiments:
[1] = molecular target: T1, long-form human leptin receptor, OB-Rb (Homo sapiens, UniProt P48357); assay: 125I-labeled human leptin binding to OB-Rb on stably transfected HEK293 cells, with or without pre-incubation with human CRP
T1 construct: expressed in transfected cells
T1 sequence (P48357 22-1165): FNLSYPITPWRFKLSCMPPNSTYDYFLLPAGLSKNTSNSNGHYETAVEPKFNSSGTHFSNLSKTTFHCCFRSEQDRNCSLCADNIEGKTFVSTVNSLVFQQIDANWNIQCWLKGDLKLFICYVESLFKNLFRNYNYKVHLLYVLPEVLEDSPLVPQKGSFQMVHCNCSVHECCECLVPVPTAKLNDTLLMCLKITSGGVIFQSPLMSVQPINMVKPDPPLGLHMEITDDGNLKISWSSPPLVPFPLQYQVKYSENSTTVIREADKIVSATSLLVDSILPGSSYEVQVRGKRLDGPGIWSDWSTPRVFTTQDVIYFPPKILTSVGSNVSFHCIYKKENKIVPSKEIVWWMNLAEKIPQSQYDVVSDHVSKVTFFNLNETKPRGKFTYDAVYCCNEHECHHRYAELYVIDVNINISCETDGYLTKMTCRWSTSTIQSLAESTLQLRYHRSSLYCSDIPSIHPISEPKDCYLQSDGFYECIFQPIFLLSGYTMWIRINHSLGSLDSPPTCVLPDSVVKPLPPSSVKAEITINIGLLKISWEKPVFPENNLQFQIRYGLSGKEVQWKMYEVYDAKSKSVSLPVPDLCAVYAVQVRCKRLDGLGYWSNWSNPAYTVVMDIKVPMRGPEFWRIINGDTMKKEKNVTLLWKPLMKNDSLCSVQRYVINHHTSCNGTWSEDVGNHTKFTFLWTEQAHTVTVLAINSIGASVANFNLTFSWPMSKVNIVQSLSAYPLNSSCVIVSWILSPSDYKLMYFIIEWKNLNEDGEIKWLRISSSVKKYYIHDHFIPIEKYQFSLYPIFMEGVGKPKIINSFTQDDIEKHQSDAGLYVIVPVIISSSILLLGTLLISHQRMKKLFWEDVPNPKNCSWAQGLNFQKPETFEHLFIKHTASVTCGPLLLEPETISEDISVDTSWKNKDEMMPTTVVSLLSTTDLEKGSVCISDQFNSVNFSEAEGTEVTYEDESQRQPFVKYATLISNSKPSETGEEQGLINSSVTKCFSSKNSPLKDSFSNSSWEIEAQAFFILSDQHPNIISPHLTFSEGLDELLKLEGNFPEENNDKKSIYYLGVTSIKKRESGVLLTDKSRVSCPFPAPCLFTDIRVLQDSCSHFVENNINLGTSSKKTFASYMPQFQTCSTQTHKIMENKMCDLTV
Protocol: FIG. 4A. Interference effect of human CRP on human leptin binding to its receptor. HEK293 cells stably transfected with the long-form human leptin receptor, OB-Rb (14), are used to examine whether human CRP interferes with the ability of human leptin to bind to its receptor. […] The dashed line at the bottom right of the graph indicates ^125I-leptin bound when two thousand fold excess of non-labeled leptin is added.
To examine if CRP binding interferes with the stability of human leptin to bind to its receptors, a HEK293 cell line stably transfected with the long-form human leptin receptor, OB—Rb, was used (17). Human leptin was iodinated with Na^125I using the lodogen method. Briefly, 15 μg of recombinant human leptin in 100 mM Phosphate buffer pH 7.5 were incubated with 1 mCi of carrier-free Na^125I (2200 Ci/mmol) in a glass tube containing 50 μg Iodogen. After 10-minute incubation at room temperature, the reaction was stopped with 100 μl 0.1% trifluoroacetic acid (TFA). The reaction mixture was immediately purified by reverse-phase HPLC. The separation employed a 5-minute isocratic step at 20% eluant B in A, followed by two consecutive 30 min linear gradients from 20 to 50%, then from 50 to 60% eluant B in A (where eluant A is water containing 0.1% TFA and eluant B is acetonitrile containing 0.1% TFA) at a flow rate of 1.5 ml/min. […]

[2] = tested on: tyrosine phosphorylation of STAT3 in the hypothalamic tissues; assay: Tyrosine phosphorylation of STAT3 in hypothalamic tissues after i.c.v. injection (Western blot); type: in vivo, mouse
Protocol: The hypothalamic tissues were surgically dissected right after sacrificing the mice. A portion of each tissue was extracted for protein in a protein lysis buffer. The activation of STAT3 was evaluated using Western blot assays with an antibody against phospho-tyrosine-STAT3 as described above (Cell Signaling, Beverly, Mass.). The membrane was striped and applied with an antibody against STAT3 to evaluate the overall level of STAT3 (Cell Signaling, Beverly, Mass.).
To determine whether the interaction between human CRP and leptin dampens the cellular actions of leptin, an assessment was made of the ability of leptin to stimulate tyrosine phosphorylation of STAT3 in the hypothalamic tissues. As described above, human CRP at 2.3 μg/injection or PBS was pre-injected via i.c.v., followed by an injection of human leptin or mouse leptin, each at 100 ng/injection. Subsequently, the hypothalamic tissues were dissected and immediately placed into liquid nitrogen for a rapid freezing. A portion of the frozen tissue was homogenized in a protein lysis buffer for the extraction of proteins. The protein extract was then subjected to Western blot assay as described above.

[3] = tested on: leptin signaling in primary hypothalamic neurons; assay: Phospho-STAT3 and PI3-kinase assays of leptin signaling in primary hypothalamic neurons; type: cell-based, rat
Protocol: (§1) To determine if the interaction between CRP and leptin dampens the cellular actions of leptin, the ability of leptin to stimulate tyrosine phosphorylation of STAT3 and PI3-kinase activity was assessed in the presence of CRP in vitro. HEK293 cells over-expressing OB-Rb were serum starved for 2 hours before addition of leptin and CRP (CHEMICON or EMD Biosciences). Leptin, in the presence or absence of CRP, was pre-incubated in μ-MEM (with additional 1 mM Ca^2+) for 30 minutes at 37° C. before being applied to the cells. After a 30-minute incubation with leptin, the cells were harvested in lysis buffer (18). The resultant protein extract was subjected to a Western blot analysis using an anti-phospho-STAT3 specific antibody (Cell Signaling, Beverly, Mass.). For studies involving primary hypothalamic neurons, the hypothalamus from rats was surgically isolated immediately after euthanasia, and placed in the DMEM for incubation with leptin in the presence or absence of CRP.

[4] = tested on: tyrosine phosphorylation of STAT3; assay: Leptin-induced tyrosine phosphorylation of STAT3 in HEK293 cells over-expressing OB-Rb in the presence of CRP (Western blot); type: cell-based, human
Protocol: as §1

Row | IC50 of human CRP for reducing 125I-labeled human leptin binding to its receptor ([1]; in the presence of about 2 ng/ml human leptin, 1 hour pre-incubation) | Substance | Kd ([1]; HEK293 cells stably transfected with OB-Rb) [nM] | level of phosph-STAT3 in hypothalamic tissues after leptin ([2]; human leptin 100 ng/injection following PBS) | effect on leptin signaling (phospho-STAT3, PI3-kinase) [3] | effect of CRP pre-injection on human leptin-induced STAT3 activation ([2]; human CRP 2.3 μg/injection) | effect of CRP pre-injection on mouse leptin-induced STAT3 activation ([2]; human CRP 2.3 μg/injection) | calcium dependence of attenuation of leptin signaling ([4]; excess EGTA added to the medium) | effect of CRP on human leptin-induced tyrosine phosphorylation of STAT3 ([4]; HEK293 OB-Rb) | effect of CRP on human leptin-induced tyrosine phosphorylation of STAT3 ([4]; HEK293 OB-Rb, listed as Human CRP) | effect of CRP on murine leptin-induced tyrosine phosphorylation of STAT3 ([4]; murine/mouse leptin, HEK293 OB-Rb)
1 |  | human leptin: human recombinant leptin | 1 | sharp increase |  |  |  |  |  |  | 
2 | approximately 80 ng/ml | human CRP: human C-reactive protein, purified preparation from a commercial source |  |  | specifically inhibited leptin signaling | drastically diminished | did not block | requires the presence of calcium ions | attenuating effects; also recorded: caused the reduction of leptin-stimulated STAT3 activation; also recorded: attenuate | suppressed the activation of STAT3; also recorded: suppresses activation of STAT3 | does not have attenuation effect; also recorded: unable to block
